The target in the experiment is Tat-TAR interaction (Human immunodeficiency virus type 1 group M subtype B, UniProt P69697). The experiment in a line: ChIP of FLAG-Tat followed by qRT-PCR of TAR in HeLa-CD4-LTR-Luc cells. The experiment is classed as cell-based, HIV-1. Also noted: expressed in transfected cells; host or cells: HeLa-CD4-LTR-Luc. Particulars: compounds 25 nM, 48 h. The text has this:
FIG 6 dCA binding to Tat disrupts Tat-TAR interaction. (A) EMSA of full-length Tat with TAR in the presence of dCA. Raltegravir (Ralt.) and deleted bulge TAR (ΔTAR) were used as negative controls. Data are representative of n = 3 independent experiments. (B) EMSA of Tat’s basic domain with TAR in the presence of increasing concentrations of dCA to Tat’s basic peptide. Pep B is a peptide encompassing the basic domain of HIV Tat (^45ISYGRKKRRQRRRAP^59). Pep C (^69LSKQPASQPRGDPTG^83) and unlabeled or cold TAR (TARc) were used as negative controls. Neomycin, which binds to Tat and TAR, was used as a positive control. Ratios of compounds (or TARc) concentrations to peptide are shown. Data are representative of n = 3 independent experiments. […] Shown are ITC results from binding of dCA (left) or Tat peptide (right) to TAR at 25°C. […] For the lower plots, results were converted to molar heats and plotted against the molar ratio of dCA or peptide to RNA. […] Luciferase activity was determined relative to protein concentration (Bradford assay) (Fig. S9A). […] Statistical significance was determined using one-way ANOVA with post hoc Tukey’s test with 3 technical replicates. ns, not significant; ***, P < 0.0001. […]
Chromatin immunoprecipitation assay (CHIP). […] The relative proportions of co-immunoprecipitated DNA were determined on the basis of the threshold cycle for qRT-PCR. […]

Tat-TAR interaction, sequence (P69697 whole entry, the tested form may be a part): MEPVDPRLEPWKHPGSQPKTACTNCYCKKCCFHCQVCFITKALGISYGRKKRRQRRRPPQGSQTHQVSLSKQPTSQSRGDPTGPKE

In the case of `CN(C)C1CC23CCC4(O2)C(=CCC2(C)C(c5ccc6ccncc6c5)=CCC24)C=C3C(O)C1O` (centres unmarked) [dCA, didehydro-cortistatin A], the “Tat-TAR interaction in cells (ChIP)” value is recorded as “reduced this Tat-TAR interaction to similar levels as FLAG-Tat Mut”.

Turning to `Cc1nnc(C(=O)NC(C)(C)c2nc(C(=O)NCc3ccc(F)cc3)c(O)c(=O)n2C)o1` [raltegravir, reference compound], the “Tat-TAR interaction in cells (ChIP)” value was “A Tat-TAR interaction was detected”.

The record behind these values is article PMC6368365, “Didehydro-Cortistatin A Inhibits HIV-1 by Specifically Binding to the Unstructured Basic Region of Tat” (mBio, 2019).
